The source of these data is patent US11903912B2, “Composition for preventing and treating breast cancer including selenopsammaplin A as active ingredients” (Seoul National University R & DB Foundation, priority 2019, dated 2024).

Test [1] deals with SK-HEP-1 human liver cancer cells. Briefly: SRB cytotoxicity test, SK-HEP-1. The class given is cell-based. The following applies: SRB assay, cultured 3 days. As to the method:
(§1) A cytotoxicity test was performed using synthesized selenopsammaplin A and derivatives thereof (Lee S K et al […] Chem Biol Interact 115:215-28).
(§2) The cytotoxicity test was performed on a total of five representative cancer cell lines. The cytotoxicity of each compound was measured using an SRB assay method (human lung cancer cells, A549; human colon cancer cells, HCT116; human breast cancer cells, MDA-MB231; human liver cancer cells, SK-HEP-1; human gastric cancer cells, SNU638).
(§3) Each cell line was sub-cultured once or twice using Roswell Park Memorial Institute (RPMI) medium 1640 (RPMI 1640) or Dulbecco's Modified Eagle's Medium (DMEM) containing 10% fetal bovine serum (FBS) inactivated by heat, 100 units/mL of penicillin, 100 μg/mL of streptomycin, and 250 ng/mL of amphotericin B at 37° C. for 1 week under a 5% CO2 condition. All cells were […] in liquid nitrogen, and then passaged three or more times to be used in the experiment. The effects of compounds on cell growth were measured using a sulforhodamine B (SRB) method (Lee et al (1998) Chemico-Biol Interact 115:215-228).
(§4) Specifically, each human cancer cell line used in the present invention was sub-cultured in an RPMI medium containing 10% FBS, 1% PSF, and the like, and 10 μl of a sample dissolved in 10% DMSO and 190 μl (4-5×10^4 cells/ml) of the cell suspension were added to each well of a 96-well plate and cultured for 3 days. 190 μl of the cell suspension was added to at least 16 wells and cultured for 30 minutes, and used as a zero-day control. The cultured cells were fixed with 10% trichloroacetic acid (TCA) and then stained with an SRB solution, and the staining solution was dissolved with 10 mM Tris-base, and then absorbance at 515 nm was measured. Using the case of culturing in 10% DMSO as a control, cell viability according to each test material treatment was measured using Equation 1 below. Etoposide was used as a positive control. % Viability=(OD(sample)−OD(0-day))/(OD(10% DMSO)−OD(0-day))×100 [Equation 1]
(§5) Assuming that a control not-treated with the sample was set at 100%, the values of sample-treated groups were expressed as percentage with respect to the control, and each test material treatment results were obtained as the mean±SEM of two or three tests. The IC50 value is the concentration of the test material for a 50% survival rate.
(Sulforhodamine B stains cellular protein and so reports cell mass.)

The subject of test [2] is MDA-MB231 human breast cancer cells. Briefly: SRB cytotoxicity test, MDA-MB231. The class given is cell-based. Conditions: SRB assay, cultured 3 days. On the procedure:
as §1, §2, §3, §4, §5

A further test deals with breast cancer metastasis. Briefly: Breast cancer metastasis to organs in animal model, IVIS. The class given is in vivo, nude BALB/c mice. The following applies: 5 mg/kg, 15 mg/kg. From the text: Organs such as the lungs, liver, spleen, and kidneys were extracted from the animal model of Example 8, and the degrees of cancer metastasis in the control and the administered groups were indirectly photographed using IVIS (PerkinElmer) and are illustrated in FIG. 9.

Test [3] concerns A549 human lung cancer cells. Briefly: SRB cytotoxicity test, A549. In kind it is cell-based. The following applies: SRB assay, cultured 3 days. On the procedure:
as §1, §2, §3, §4, §5

In another test the target is T1, DOT1L (Homo sapiens, UniProt Q8TEK3).
T1 construct: based on the finding that DOT1L was overexpressed in the breast cancer cell line; endogenous in cells
The test is described as follows: Target selectivity for H3K79 residue in MDA-MB-231 cell line, western blot. In kind it is cell-based. On the procedure: Compound 2 (X=ph) was selected from among selenopsammaplin A and the derivatives thereof, and in order to confirm the selectivity thereof for the H3K79 residue, which is an intracellular DOT1L target, an experiment was performed as follows. The triple-negative breast cancer cell line MDA-MB-231 was spread at a concentration of 2×10^6 cells/well on a DMEM medium containing 10% FBS in a 6-well plate, cultured at 37° C. for 24 hours under a 5% CO2 condition, and then washed twice with phosphate-buffered saline (PBS). Attached cells were recovered and washed twice with PBS, and then boiling 2× sample loading buffer (250 mM Tris-HCl (pH 6.8), 4% SDS, 10% glycerol, 0.006% bromophenol blue, 2% β-mercaptoethanol, 50 mM sodium fluoride, and 5 mM sodium orthovanadate) was added thereto to disrupt the cells and the cells were left at 100° C. for 10 minutes. After cooling, the cells were stored at […] and […] at 37° C. immediately before use in protein quantification and electrophoresis. 10 μg of proteins were electrophoresed at 100 V for 2 hours using a 12% SDS-polyacrylamide gel (#456-1036, Bio-Rad, Hercules, Calif.). […] These were quantified using ImageJ software and the results thereof are illustrated in FIG. 4B.
(In general: Immunoblotting shows a protein as a band on a membrane.)

Another test concerns MDA-MB-231 cells. Briefly: Cancer cell invasion (Transwell) test. In kind it is cell-based, human. The following applies: MDA-MB-231, Transwell, 50-400 nM, 24 hours. As to the method: The triple-negative breast cancer cell line MDA-MB-231 was spread at a concentration of 1×10^6 cells/well on a DMEM medium containing 10% FBS in a Transwell plate, cultured at 37° C. for 24 hours under a 5% CO2 condition, and then washed once with phosphate-buffered saline (PBS). Subsequently, the cells were treated with 50-400 nM compound 2 and 400 nM psammaplin A, and then cultured for 24 hours. After washing once with PBS, a membrane was attached to a slide glass, the degree of cell invasion was photographed using a microscope, and the results thereof are illustrated in FIG. 6A. The degree of invasion compared to a control using ImageJ software is illustrated in FIG. 6B.

T1 sequence (Q8TEK3 whole entry): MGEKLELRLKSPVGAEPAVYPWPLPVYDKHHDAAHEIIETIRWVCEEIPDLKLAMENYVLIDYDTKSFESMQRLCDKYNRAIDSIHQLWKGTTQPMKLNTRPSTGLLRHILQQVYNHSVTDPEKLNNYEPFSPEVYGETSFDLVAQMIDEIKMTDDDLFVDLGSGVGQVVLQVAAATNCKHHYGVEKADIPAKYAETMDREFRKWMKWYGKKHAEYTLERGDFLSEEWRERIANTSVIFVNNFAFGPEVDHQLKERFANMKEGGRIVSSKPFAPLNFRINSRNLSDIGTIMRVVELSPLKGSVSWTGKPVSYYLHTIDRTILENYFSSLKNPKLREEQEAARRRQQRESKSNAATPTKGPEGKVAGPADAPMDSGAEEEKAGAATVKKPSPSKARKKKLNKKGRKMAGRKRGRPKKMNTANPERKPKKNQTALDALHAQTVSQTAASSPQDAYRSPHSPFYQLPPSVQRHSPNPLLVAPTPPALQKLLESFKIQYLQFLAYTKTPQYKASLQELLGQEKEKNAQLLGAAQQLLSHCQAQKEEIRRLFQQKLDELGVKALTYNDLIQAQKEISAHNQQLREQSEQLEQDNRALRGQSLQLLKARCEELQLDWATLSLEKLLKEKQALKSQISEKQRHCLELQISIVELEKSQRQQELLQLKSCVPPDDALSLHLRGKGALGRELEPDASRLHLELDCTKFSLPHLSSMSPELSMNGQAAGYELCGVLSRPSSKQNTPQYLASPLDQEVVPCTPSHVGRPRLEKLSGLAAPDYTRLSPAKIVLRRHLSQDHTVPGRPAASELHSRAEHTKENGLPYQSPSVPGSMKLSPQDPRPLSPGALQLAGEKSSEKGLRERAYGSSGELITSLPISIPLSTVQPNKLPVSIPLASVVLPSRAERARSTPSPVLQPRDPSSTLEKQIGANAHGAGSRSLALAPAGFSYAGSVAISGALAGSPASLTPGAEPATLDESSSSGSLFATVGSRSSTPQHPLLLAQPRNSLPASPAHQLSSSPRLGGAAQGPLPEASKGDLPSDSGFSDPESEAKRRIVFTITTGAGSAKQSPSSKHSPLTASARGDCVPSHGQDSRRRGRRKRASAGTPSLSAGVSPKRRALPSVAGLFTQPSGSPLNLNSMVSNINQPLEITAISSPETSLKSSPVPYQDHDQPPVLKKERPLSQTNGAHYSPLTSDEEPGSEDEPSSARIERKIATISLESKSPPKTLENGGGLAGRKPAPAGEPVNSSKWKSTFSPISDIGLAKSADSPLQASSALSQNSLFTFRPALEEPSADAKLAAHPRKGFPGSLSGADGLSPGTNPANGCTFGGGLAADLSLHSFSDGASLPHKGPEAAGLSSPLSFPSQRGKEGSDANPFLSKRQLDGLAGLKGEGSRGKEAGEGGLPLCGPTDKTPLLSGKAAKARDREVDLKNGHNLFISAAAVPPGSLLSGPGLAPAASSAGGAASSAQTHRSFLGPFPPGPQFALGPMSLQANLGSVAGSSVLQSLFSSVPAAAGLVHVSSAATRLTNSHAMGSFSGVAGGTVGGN

For orientation: IC50 means the midpoint of a concentration-inhibition curve. Read a high IC50 as a need for much substance. Turning to `O=C(NCC[Se][Se]CCNC(=O)/C(Cc1ccccc1)=N/O)/C(Cc1ccccc1)=N/O` [Compound 2, (2E,2′E)-N,N′-(diselenediylbis(ethane-2,1-diyl))bis(2-(hydroxyimino)-3-phenylpropanamide)], the figures for the IC50 in test [1], in test [2] and in test [3] were 120 nM, 60 nM and 80 nM, respectively. The “degree of metastasis to each organ (lungs, liver, spleen, kidneys)” value in the test with breast cancer metastasis is recorded as “significantly reduced”. The “degree of metastasis to the lungs” value in the test on breast cancer metastasis is “greatly reduced”. The “methylation of other histone 3 residues” value on DOT1L (MDA-MB-231, H3K4me2, H3K27me2, H3K36me2 western blot, FIG. 4) is “without changing”. Also, the “methylation of H3K79 (residue 79)” value on DOT1L (MDA-MB-231, H3K79me2 western blot, FIG. 4, compared to psammaplin A) is given as “specifically suppressed”. In the test with MDA-MB-231 cells, the “invasion of breast cancer cells” value is “effectively suppressed”.
